How the values were obtained:
hPPARgamma [1] = target: T1, hPPARgamma (Homo sapiens, UniProt P37231); assay: PPAR activation: Gal4-hPPARγ chimera luciferase transactivation in COS-7 cells, Method 1; format: cell-based; details: COS-7, 24 h; for Emax: maximum percentage response relative to the reference rosiglitazone, read-out: hPPARgamma % max
T1 construct: expressed in transfected cells; host or cells: COS-7 (monkey kidney fibroblasts)
T1 sequence (P37231 238-503 limits assumed): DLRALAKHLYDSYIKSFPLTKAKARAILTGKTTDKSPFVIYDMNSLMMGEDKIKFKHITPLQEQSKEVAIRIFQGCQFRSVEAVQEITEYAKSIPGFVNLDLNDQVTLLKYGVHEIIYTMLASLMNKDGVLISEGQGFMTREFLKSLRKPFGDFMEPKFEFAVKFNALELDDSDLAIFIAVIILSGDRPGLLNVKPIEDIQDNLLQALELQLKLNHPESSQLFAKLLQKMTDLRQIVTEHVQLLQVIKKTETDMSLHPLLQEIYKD
Description: (§1) The activation of the PPARs was evaluated in vitro on a line of monkey kidney fibroblasts (COS-7) by measuring the transcriptional activity of chimeras constituted of the DNA binding domain of the Gal4 transcription factor of yeast and the ligand binding domain of the various PPARs. The compounds were tested at doses between 10^−5 and […] on the chimeras Gal4-PPARα, γ or δ, and the corresponding EC50 values were determined.
(§2) The COS-7 cells were obtained from the ATCC and were cultivated in DMEM medium supplemented with 10% (v/v) of fetal calf serum, 100 U/ml of penicillin (Gibco, Paisley, UK) and 2 mM of L-glutamine (Gibco, Paisley, UK). The cells were incubated at 37° C. in a humid atmosphere containing 5% CO2.
(§3) The plasmids Gal4(RE)_TkpGL3, pGal4-hPPARα, pGal4-hPPARγ, pGal4-hPPARδ and pGal4-φ are described in the literature (Raspe E et al., 1999). The constructs pGal4-hPPARα, pGal4-hPPARγ and pGal4-hPPARδ were obtained by cloning DNA fragments amplified by PCR corresponding to the DEF domains of the human nuclear receptors PPARα, PPARγ and PPARδ in the pGal4-φ vector.
(§4) The COS-7 cells in suspension were transfected with 150 ng of DNA per well, with a pGal4-PPAR/Gal4(RE)_TkpGL3 ratio of 1/10, in the presence of 10% fetal calf serum. The cells were seeded in 96-well plates (4×10^4 cells/well) and then incubated at 37° C. for 24 hours. Activation with the test compounds is carried out for 24 h at 37° C. in serum-free medium. At the end of the experiment, the cells were lysed and the luciferase activity was determined using the Steady-Lite™ HTS (Perkin Elmer) following the supplier's recommendations.

hPPARalpha [2] = target: T2, hPPARalpha (Homo sapiens, UniProt Q07869); assay: PPAR activation: Gal4-hPPARα chimera luciferase transactivation in COS-7 cells, Method 1; format: cell-based; details: COS-7, 24 h; for Emax: maximum percentage response relative to the reference phenofibric acid, read-out: hPPARalpha % max
T2 construct: expressed in transfected cells; host or cells: COS-7 (monkey kidney fibroblasts)
T2 sequence (Q07869 239-466 limits assumed): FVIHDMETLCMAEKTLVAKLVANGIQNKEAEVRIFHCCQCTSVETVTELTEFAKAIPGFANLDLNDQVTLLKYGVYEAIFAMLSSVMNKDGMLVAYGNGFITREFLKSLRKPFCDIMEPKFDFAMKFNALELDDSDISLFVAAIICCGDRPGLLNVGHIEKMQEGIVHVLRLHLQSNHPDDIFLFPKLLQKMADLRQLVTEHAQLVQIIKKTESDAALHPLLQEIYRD
Description: as §1, §2, §3, §4

hPPARdelta [3] = target: T3, hPPARdelta (Homo sapiens, UniProt Q03181); assay: PPAR activation: Gal4-hPPARδ chimera luciferase transactivation in COS-7 cells, Method 1; format: cell-based; details: COS-7, 24 h; for Emax: maximum percentage response relative to the reference GW501516, read-out: hPPARdelta % max
T3 construct: expressed in transfected cells; host or cells: COS-7 (monkey kidney fibroblasts)
T3 sequence (Q03181 211-439 limits assumed): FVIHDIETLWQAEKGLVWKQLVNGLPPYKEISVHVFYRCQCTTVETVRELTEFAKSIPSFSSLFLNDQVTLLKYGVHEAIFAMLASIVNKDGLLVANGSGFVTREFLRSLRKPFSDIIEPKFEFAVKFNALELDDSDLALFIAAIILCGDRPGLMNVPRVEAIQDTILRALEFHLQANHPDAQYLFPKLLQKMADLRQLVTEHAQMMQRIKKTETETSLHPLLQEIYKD
Description: as §1, §2, §3, §4

hPPARalpha [4] = target: T2, hPPARalpha; assay: PPAR activation: Gal4-hPPARα chimera luciferase transactivation in COS-7 cells, Method 2; format: cell-based; details: COS-7, 24 h; for EC50: 1% Ultroser; for Emax: maximum percentage response relative to the reference phenofibric acid, read-out: hPPARalpha % max
Description: as §1
(§5) The principle, the cells and the plasmids used for example 5 were also employed in this example. Only the application of the transfection stage is slightly different. The details are presented below.
(§6) The adherent COS-7 cells are transfected with 40 μg of DNA per 225 cm^2 dish, with a pGal4-PPAR/Gal4(RE)_TkpGL3 ratio of 1/10, in the presence of 10% fetal calf serum. The cells are then detached and seeded in the absence of serum in 384-well plates (2×10^4 cells/well) and incubated for 4 hours at 37° C. The compounds are then diluted in a 96-well plate and transferred to the 384-well plate. Activation with the test compounds is carried out for an additional 24 h at 37° C. in the presence of 1% of Ultroser™ lipid-free synthetic serum (Biosepra). These last 2 stages are automated using a Genesis Freedom 200™ station (Tecan). At the end of the experiment, the cells are lysed and the luciferase activity is determined using the Steady-Lite™ HTS (Perkin Elmer) following the supplier's recommendations.

hPPARdelta [5] = target: T3, hPPARdelta; assay: PPAR activation: Gal4-hPPARδ chimera luciferase transactivation in COS-7 cells, Method 2; format: cell-based; details: COS-7, 24 h; for EC50: 1% Ultroser; for Emax: maximum percentage response relative to the reference GW501516, read-out: hPPARdelta % max
Description: as §1, §5, §6

hPPARgamma [6] = target: T1, hPPARgamma; assay: PPAR activation: Gal4-hPPARγ chimera luciferase transactivation in COS-7 cells, Method 2; format: cell-based; details: COS-7, 24 h, Method 2; for Emax: maximum percentage response relative to the reference rosiglitazone, read-out: hPPARgamma % max; for EC50: 1% Ultroser, read-out: hPPARgamma EC50
Description: The activation of the PPARs was evaluated in vitro on a line of monkey kidney fibroblasts (COS-7) by measuring the transcriptional activity of chimeras constituted of the DNA binding domain of the Gal4 transcription factor of yeast and the ligand binding domain of the various PPARs.
Only the application of the transfection stage is slightly different. The details are presented below.
as §6

Row | SMILES | melting point [°C] | EC50 (hPPARgamma [1]) [nM] | Emax (hPPARgamma [1]) [%] | EC50 (hPPARalpha [2]) [nM] | Emax (hPPARalpha [2]) [%] | EC50 (hPPARdelta [3]) [nM] | Emax (hPPARdelta [3]) [%] | EC50 (hPPARalpha [4]) [nM] | Emax (hPPARalpha [4]) [%] | EC50 (hPPARdelta [5]) [nM] | Emax (hPPARdelta [5]) [%] | Emax (hPPARgamma [6]) [%] | EC50 (hPPARgamma [6]) [nM]
1 | CCC(Oc1ccc(CCC(=O)c2ccc(-c3ccc(C(F)(F)F)cc3)s2)cc1Br)C(=O)O (stereo not shown) [Compound 32, 2-(2-bromo-4-(3-oxo-3-(5-(4-(trifluoromethyl)phenyl)thien-2-yl)propyl)phenoxy)butanoic acid] | 126 to 128 | 210 | 67 | 8 | 52 | 36 | 75 |  |  |  |  |  | 
2 | CC(C)(Oc1ccc(CCC(=O)c2ccc(-c3ccc(C(F)(F)F)cc3)s2)cc1Br)C(=O)O [Compound 36, 2-(2-bromo-4-(3-oxo-3-(5-(4-(trifluoromethyl)phenyl)thien-2-yl)propyl)phenoxy)-2-methylpropanoic acid] | 102 to 104 |  | 63 | 5 | 47 | 9 | 85 |  |  |  |  |  | 
3 | CC(C)(Oc1ccc(CCC(OCc2ccc(I)cc2)c2ccc(-c3ccc(C(F)(F)F)cc3)s2)c(Cl)c1Cl)C(=O)O (stereo not shown) [Compound 6, 2-(4-(3-(4-iodobenzyloxy)-3-(5-(4-(trifluoromethyl)phenyl)thien-2-yl)propyl)-2,3-dichlorophenoxy)-2-methylpropanoic acid] |  |  |  |  |  |  |  | 7860 | 41 | 530 | 92 | 55 | 4110
4 | CC(C)(CCCOc1ccc(CCC(=O)c2ccc(-c3ccc(C(F)(F)F)cc3)s2)c(Cl)c1Cl)C(=O)O [Compound 13, 5-(2,3-dichloro-4-(3-oxo-3-(5-(4-(trifluoromethyl)phenyl)thien-2-yl)propyl)phenoxy)-2,2-dimethylpentanoic acid] | 167 to 169 | 490 | 58 | 977 | 20 |  | 1 |  |  |  |  |  | 
5 | CCC(Oc1ccc(CCC(O)c2ccc(-c3ccc(C(F)(F)F)cc3)s2)cc1F)C(=O)O (stereo not shown) [Compound 30, 2-(2-fluoro-4-(3-hydroxy-3-(5-(4-(trifluoromethyl)phenyl)thien-2-yl)propyl)phenoxy)butanoic acid] |  |  |  |  |  |  |  | 50 | 51 | 1530 | 80 | 45 | 3930
6 | O=C(O)COc1ccc(CCC(=O)c2ccc(-c3ccc(C(F)(F)F)cc3)s2)cc1Br [Compound 34, 2-(2-bromo-4-(3-oxo-3-(5-(4-(trifluoromethyl)phenyl)thien-2-yl)propyl)phenoxy)acetic acid] | 180 to 182 |  | 37 | 60 | 61 | 114 | 95 |  |  |  |  |  | 
7 | O=C(O)COc1ccc(CCC(OCc2ccccc2)c2ccc(-c3ccc(C(F)(F)F)cc3)s2)cc1F (stereo not shown) [Compound 27, 2-(4-(3-(benzyloxy)-3-(5-(4-(trifluoromethyl)phenyl)thien-2-yl)-propyl)-2-fluorophenoxy)acetic acid] |  | 2820 | 30 | 1310 | 47 | 589 | 77 |  |  |  |  |  | 
8 | CCOC(CCc1ccc(OC(C)(C)C(=O)O)c(Cl)c1Cl)c1ccc(-c2ccc(C(F)(F)F)cc2)s1 (stereo not shown) [Compound 41, 2-(2,3-dichloro-4-(3-ethoxy-3-(5-(4-(trifluoromethyl)phenyl)thien-2-yl)propyl)phenoxy)-2-methylpropanoic acid] |  |  |  |  |  |  |  | 610 | 49 | 10 | 76 | 36 | 1490

Continued, values first:

Row | melting point [°C] | EC50 (hPPARgamma [1]) [nM] | Emax (hPPARgamma [1]) [%] | EC50 (hPPARalpha [2]) [nM] | Emax (hPPARalpha [2]) [%] | EC50 (hPPARdelta [3]) [nM] | Emax (hPPARdelta [3]) [%] | EC50 (hPPARalpha [4]) [nM] | Emax (hPPARalpha [4]) [%] | EC50 (hPPARdelta [5]) [nM] | Emax (hPPARdelta [5]) [%] | Emax (hPPARgamma [6]) [%] | EC50 (hPPARgamma [6]) [nM] | SMILES
9 | 135 to 136 | 660 | 24 | 43 | 46 | 45 | 93 |  |  |  |  |  |  | CC(C)(Oc1ccc(CCC(=NO)c2ccc(-c3ccc(C(F)(F)F)cc3)s2)c(Cl)c1Cl)C(=O)O (mixture of isomers) [Compound 49, 2-(2,3-dichloro-4-(3-(hydroxyimino)-3-(5-(4-(trifluoromethyl)-phenyl)thien-2-yl)propyl)phenoxy)-2-methylpropanoic acid]
10 | 116 to 117 |  | 73 | 4 | 52 | 109 | 79 |  |  |  |  |  |  | CCC(Oc1ccc(CCC(=O)c2ccc(-c3ccc(C(F)(F)F)cc3)s2)cc1)C(=O)O (stereo not shown) [Compound 65, 2-(4-(3-oxo-3-(5-(4-(trifluoromethyl)phenyl)thien-2-yl)propyl)-phenoxy)butanoic acid]
11 | 182 to 183 | 3530 | 15 | 33 | 61 | 292 | 90 |  |  |  |  |  |  | O=C(O)COc1ccc(CCC(=O)c2ccc(-c3ccc(C(F)(F)F)cc3)s2)cc1 [Compound 69, 2-(4-(3-oxo-3-(5-(4-(trifluoromethyl)phenyl)thien-2-yl)propyl)-phenoxy)acetic acid]
12 | 135 to 136 | 100 | 46 | 16 | 54 | 27 | 109 |  |  |  |  |  |  | CC(C)(Oc1ccc(CCC(=O)c2ccc(-c3ccc(OC(F)(F)F)cc3)s2)c(Cl)c1Cl)C(=O)O [Compound 44, 2-(2,3-dichloro-4-(3-oxo-3-(5-(4-(trifluoromethoxy)phenyl)thien-2-yl)propyl)phenoxy)-2-methylpropanoic acid]
13 |  | 970 | 56 | 227 | 47 | 216 | 67 |  |  |  |  |  |  | CCC(Oc1ccc(CCC(OCc2ccccc2)c2ccc(-c3ccc(C(F)(F)F)cc3)s2)cc1F)C(=O)O (stereo not shown) [Compound 70, 2-(4-(3-(benzyloxy)-3-(5-(4-(trifluoromethyl)phenyl)thien-2-yl)propyl)-2-fluorophenoxy)butanoic acid]
14 |  |  |  |  |  |  |  | 2000 | 28 | 260 | 82.1 | 47 | 890 | CC(C)(Oc1ccc(CCC(OCC2CCCCC2)c2ccc(-c3ccc(C(F)(F)F)cc3)s2)c(Cl)c1Cl)C(=O)O (stereo not shown) [Compound 42, 2-(2,3-dichloro-4-(3-(cyclohexylmethoxy)-3-(5-(4-(trifluoromethyl)phenyl)thien-2-yl)propyl)phenoxy)-2-methylpropanoic acid]

Reference: US8088819B2, “Derivatives of substituted 3-phenyl-1-(phenylthienyl)propan-1-ones and of 3-phenyl-1-(phenylfuranyl) propan-1-ones, preparation and use” (priority 2006, dated 2012)
